Results taken from paper doi:10.1101/2022.10.18.512764v1 (bioRxiv, 2022).

What was measured:
HeLa [1] = assay: TMR-TAT endocytic uptake measured by flow cytometry; type: cell-based
HeLa [2] = assay: Quantification of TMR-TAT puncta by 100x fluorescence microscopy; type: cell-based; conditions: TMR-TAT 5 µM, 1 h, 100x deconvoluted images, individual puncta

RKKQRRRG [TMR-TAT]
Effect of cell aging on endocytosis (HeLa [1]; HeLa cultured 2, 10, 25 days, TMR-TAT 5 µM, 1 h, Fig S1): no effect
Difference in uptake between growth in LG-DMEM and HG-DMEM, incubation in L-15 (HeLa [1]; HeLa grown 24 h, TMR-TAT 5 µM 1 h in L-15, Fig 3B): not detectable
Rate of TMR-TAT uptake at 25°C as percentage of that at 37°C (HeLa [1]; HeLa, TMR-TAT 5 µM in L-15, 5-60 min): approximately 50%
Uptake less at 25°C than at 37°C, fold (HeLa [1]; HeLa, TMR-TAT 5 µM in L-15, 60 min incubation time point, Fig 4): 1.9 fold
Effect of removing glucose from DMEM during incubation on uptake (HeLa [1]; HeLa, TMR-TAT 5 µM, 1 h, DMEM 0 vs 25 mM glucose, Fig 3C): reduction
Effect of adding glucose to L15 on uptake (HeLa [1]; HeLa, TMR-TAT 5 µM, 1 h, L15 25 vs 0 mM glucose (5 mM galactose), Fig 3C): increased
Effect of 0 wash on uptake (HeLa [1]; HeLa, TMR-TAT 5 µM, 1 h, possibly because of unwashed BSA, Fig S4): uptake is inhibited
Difference between MUP and HUP, fold MFI change (HeLa [1]; HeLa, TMR-TAT 5 µM, 1 h, discussion): 2.3 fold
Fold increase in uptake, HUP compared to LUP (HeLa [1]; HeLa, TMR-TAT 5 µM, 1 h, using a median of 0.8 × 10^3 for untreated cells): 13 fold
Endocytosis higher in DMEM (serum free) than in L-15, factor (HeLa [1]; HeLa, TMR-TAT 5 µM, 1 h incubation, Fig 3A): 1.4 fold
Average pixel intensity of puncta, HUP versus MUP (HeLa [2]): not statistically different
